Assay results from patent US7109341B2, “Therapeutic amides” (Wayne State University, priority 2002, dated 2006).
Values joined by “and” are separate entries in the source; they are usually repeats but may differ in a detail not shown here. Identical values can stand only once. Like-named read-outs stand apart in the source and are kept apart here.

Legend:
[1] = test system: Mammary Adenocarcinoma 16/C; conditions: Cage 2, IV, BID 1–5, total 600 mg/kg
Description: Table 7. […] The animal was then re-implanted with Mam16/C/71.

[2] = test system: Pancreatic Ductal Adenocarcinoma #03
Description: Pancreatic ductal adenocarcinoma-03, mammary adenocarcinoma-16/C, mammary adenocarcinoma-17/Adr, and human melanoma LOX were used in the studies. Tumors were maintained in the mouse strain of origin (C57B1/6 for Panc-03 and C3H for the mammary tumors). Balb/c SCID mice (B and T cell deficient) were used for tumor maintenance and chemotherapy trials involving the human melanoma LOX. Tumors were transplanted into the appropriate F1 hybrid (B6D2F1=C57B 1/6 female× DBA/2 male) or the strain of origin for the chemotherapy trials. Individual mouse body weights for each experiment were within 5 grams, and all mice were over 17 grams at the start of therapy. The mice were supplied food and water ad libitum.
Animals were pooled, implanted subcutaneously with 30 to 60 mg tumor fragments by a 12 gauge trocar on day 0, and again pooled before unselective distribution to the various treatment and control groups. For early stage treatment, chemotherapy was started within 1 to 3 days after tumor implantation while the number of cells was relatively small (10^7 to 10^8 cells). For upstaged or advanced staged trials, the tumors were allowed to grow for five or more days before treatment was started. Tumors were measured with a caliper twice weekly. […] Tumor weights are estimated from two-dimensional measurements:
Tumor weight (in mg)=(a×b^2)/2, where a and b are the tumor length and width in (mm), respectively.
a) Tumor growth delay (T−C value), where T is the median time (in days) required for the treatment group tumors to reach a predetermined size (e.g., 1,000 mg), and C is the median time (in days) for the control group tumors to reach the same size. Tumor-free survivors were are excluded from these calculations (cures are tabulated separately). This value is an important criterion of anti-tumor effectiveness because it allows the quantification of tumor cell kill.
b) Calculation of tumor cell kill for subcutaneously (SC) growing tumors. […] The conversion of the T−C values to log10 cell kill is possible because the Td of tumors re-growing post treatment (Rx) approximates the Td values of the tumors in untreated control mice.
In selected cases, both for historic in vivo evaluation data as well as data presented here, it is of value to compare log kill numbers from trials of markedly different testing schedules. […] It should be noted that an activity rating of +++ to ++++ is needed to effect partial regression (PR) or complete regression (CR) of 100 to 300 mg size masses of most transplanted solid tumors of mice. Thus, an activity rating of + or ++ would not be scored as active by usual clinical criteria. A PR is a reduction in tumor mass to less than 50% of pretreatment size. A CR is a reduction in tumor mass to below palpable size (i.e., reduction to zero detectable mass).
The T/C value in percent is an indication of anti-tumor effectiveness: A T/C=0% means no tumor growth. A T/C=100% means no anti-tumor activity, i.e., the treated and control tumors grew equally. […] A T/C value<10% is considered to indicate highly significant anti-tumor activity, and is the level used by NCI to justify a clinical trial if toxicity, formulation, and certain other requirements are met (termed DN-2 level activity).
Compounds as their sodium salts were prepared in a 1% sodium bicarbonate solution, H2O or phosphate buffered saline (PBS), with pH adjusted to 7.0 to 7.5 with HCl, and administered intravenously (IV) or orally (PO), at injection volumes of 0.2 mL per injection.

[3] = test system: Pancreatic Adenocarcinoma 03; experiment: Evaluation against early stage Pancreatic Adenocarcinoma 03 in BDF1 male mice (Table 1); assay type: in vivo, mouse; conditions: PO, QD3–6, 9–11, BID 7–8
[4] = test system: Human Melanoma LOX; conditions: Cage 3; IV; qd 1–6, BID 7; total 700 mg/kg
[5] = Cage 3, IV-SC, qd 3–5, 8–11, BID 6, 7, total 780 mg/kg
[6] = Cage 4, IV-SC, qd 3–5, 8–11, BID 6, 7, total 390 mg/kg
[7] = Cage 5, IV, qd 3, 4, total 30 mg/kg

In the case of `CC(Oc1ccc(Oc2ccc3ccc(Br)cc3n2)cc1)C(=O)NCCS(=O)(=O)[O-].[Na+]` (centres unmarked) [Compound 14g, Sodium (2-(4-(7-bromo-2-quinolinyl)oxy)phenoxy)propionylamino ethanesulfonate], the “Day of Wt. Loss Nadir” value [1] is reported as 4 days, the “Drug Death (day of death)” value [1] is reported as 0/6 and the “Log Cell Kill” value [1] is reported as 0.9. The “Mean Body Wt. Loss in g/mouse” value [1] was −2.3 g/mouse, the “Median Tumor Burden in mg on d 9 (range)” value [1] was 230 mg and the “T-C” value [1] was 3.5 days. The T/C % [1] was 14%, the “Time to 1,000 mg in days (range)” value [1] was 11.5 days and the “day of full body weight recovery” value [1] was at most 10 days. For the same compound, the “Percent Body Weight Loss” value ([1]; listed as 14g (Racemic)) was −11.0%, the “Tumor Free on d 161” value ([1]; listed as 14g (Racemic)) was 1/6 and the “Comments (activity rating)” value ([1]; listed as 14g Racemic) was “+ (0.7–1.2)”. The “Percent Body Weight Loss” value ([1]; listed as 14g Racemic) was 11%, the “Tumor Free on d 161” value ([1]; listed as 14g Racemic) was “One animal remained tumor free” and the “Percent Body Weight Loss” value ([1]; listed as 14g racemic) was −11%. The “Tumor Free on d 161” value ([1]; listed as 14g racemic) was “⅕”.

`CC(Oc1ccc(Oc2cnc3ccc(Cl)cc3n2)cc1)C(=O)NCCS(=O)(=O)[O-].[Na+]` (centres unmarked) [Compound 14f, Sodium (2-(4-(7-chloro-2-quinoxalinyl)oxy)phenoxy)propionylamino ethanesulfonate] was tested, and the “Drug Death (day of death)” value [2, 5] was 0/5, the “Log Cell Kill” value [2, 5] was 1.67 and the “Median Tumor Burden in mg on d17 (range)” value [2, 5] was 126 mg. The “T-C” value [2, 5] was 10.0 days, the T/C % [2, 5] was 10% and the “Time to 1000 mg in days (range)” value [2, 5] was 26 days. The “Tumor Free on d35” value [2, 5] was 0/5, the “Comments (activity rating)” value [2, 6] was “Inactive” and the “Drug Death (day of death)” value [2, 6] was 0/5. For the same compound, the “Log Cell Kill” value [2, 6] was 0.58, the “Median Tumor Burden in mg on d17 (range)” value [2, 6] was 600 mg and the “T-C” value [2, 6] was 3.5 days. The T/C % [2, 6] was 50%, the “Time to 1000 mg in days (range)” value [2, 6] was 19.5 days and the “Tumor Free on d35” value [2, 6] was 0/5. For the same compound, the “Comments (activity rating)” value [2, 7] was “Inactive”, the “Drug Death (day of death)” value [2, 7] was 0/5 and the “Log Cell Kill” value [2, 7] was 0.0. The “Median Tumor Burden in mg on d17 (range)” value [2, 7] was 1420 mg, the “T-C” value [2, 7] was 0.0 days and the T/C % [2, 7] was over 100%. The “Time to 1000 mg in days (range)” value [2, 7] was 16 days, the “Tumor Free on d35” value [2, 7] was 0/5 and the “Day of Wt. Loss Nadir” value ([2]; mouse, in vivo) was 11 days.

With `CC(Oc1ccc(Oc2cnc3ccc(Cl)cc3n2)cc1)C(N)=O` (centres unmarked) [Compound 14a] the “Day of Wt. Loss Nadir” value ([3]; Cage 5, total 1,320 mg/kg) was 8 days, the “Drug Deaths (days of death)” value ([3]; Cage 5, total 1,320 mg/kg) was 0/5 and the “Log Kill” value ([3]; Cage 5, total 1,320 mg/kg) was 1.9. For the same compound, the “Mean Body Wt. Loss in g/mouse” value ([3]; Cage 5, total 1,320 mg/kg) was −0.8 g/mouse, the “Median tumor burden in mg on day 14 (range)” value ([3]; Cage 5, total 1,320 mg/kg) was 126 mg and the “Percent Body Wt. Loss” value ([3]; Cage 5, total 1,320 mg/kg) was −3.6%. For the same compound, the “T-C” value ([3]; Cage 5, total 1,320 mg/kg) was 12 days, the T/C % ([3]; Cage 5, total 1,320 mg/kg) was 7.3% and the “Time to 1000 mg days (range)” value ([3]; Cage 5, total 1,320 mg/kg) was 23 days. The “Tumor Free on day 21” value ([3]; Cage 5, total 1,320 mg/kg) was 0/5, the toxicity observations ([3]; Cage 5, total 1,320 mg/kg) was “Toxicity was not reached” and the “Day of Wt. Loss Nadir” value ([3]; Cage 6, total 660 mg/kg) was 5 days. For the same compound, the “Drug Deaths (days of death)” value ([3]; Cage 6, total 660 mg/kg) was 0/5, the “Log Kill” value ([3]; Cage 6, total 660 mg/kg) was 0.7 and the “Mean Body Wt. Loss in g/mouse” value ([3]; Cage 6, total 660 mg/kg) was −0.4 g/mouse. For the same compound, the “Median tumor burden in mg on day 14 (range)” value ([3]; Cage 6, total 660 mg/kg) was 695 mg, the “Percent Body Wt. Loss” value ([3]; Cage 6, total 660 mg/kg) was −1.8% and the “T-C” value ([3]; Cage 6, total 660 mg/kg) was 4.5 days. The T/C % ([3]; Cage 6, total 660 mg/kg) was 40%, the “Time to 1000 mg days (range)” value ([3]; Cage 6, total 660 mg/kg) was 15.5 days and the “Tumor Free on day 21” value ([3]; Cage 6, total 660 mg/kg) was 0/5. The “Day of Wt. Loss Nadir” value ([3]; Cage 7, total 330 mg/kg) was 6 days, the “Drug Deaths (days of death)” value ([3]; Cage 7, total 330 mg/kg) was “no lethality and 0/5” and the “Log Kill” value ([3]; Cage 7, total 330 mg/kg) was 0.3. The “Median tumor burden in mg on day 14 (range)” value ([3]; Cage 7, total 330 mg/kg) was 1273 mg, the “T-C” value ([3]; Cage 7, total 330 mg/kg) was 2 days and the T/C % ([3]; Cage 7, total 330 mg/kg) was 74%. The “Time to 1000 mg days (range)” value ([3]; Cage 7, total 330 mg/kg) was 13 days and the “Tumor Free on day 21” value ([3]; Cage 7, total 330 mg/kg) was 0/5.

`CC(Oc1ccc(Oc2cnc3ccc(Cl)cc3n2)cc1)C(=O)NCCS(=O)(=O)[O-].[Na+]` [Compound 14f (S)] was tested, and the “Comments (activity rating)” value [4] was “Inactive”, the “Drug Death (day of death)” value [4] was 0/5 and the “Log Cell Kill” value [4] was 0.3. The “Median Tumor Burden in mg on d 9 (range)” value [4] was 994 mg, the “T-C” value [4] was 1.0 days and the T/C % [4] was 71%. The “Time to 1000 mg days (range)” value [4] was 9.0 days and the “Tumor Free on d 18” value [4] was 0/5.
